According to US5902787A, “Chemically modified a-macroglobulins, methods of making, and methods of using the same in anti-cytokine therapy” (The University of Virginia Patent Foundation, priority 1997, dated 1999):

B1: native murine α2 M: α2-macroglobulin purified from the plasma of CD-1 female mice, native form (protein, UniProt Q61838 25-1495, looked up)
Pregnancy zone protein: ATAKPQYVVLVPSEVYSGVPEKACVSLNHVNETVMLSLTLEYAMQQTKLLTDQAVDKDSFYCSPFTISGSPLPYTFITVEIKGPTQRFIKKKSIQIIKAESPVFVQTDKPIYKPGQIVKFRVVSVDISFRPLNETFPVVYIETPKRNRIFQWQNIHLAGGLHQLSFPLSVEPALGIYKVVVQKDSGKKIEHSFEVKEYVLPKFEVIIKMQKTMAFLEEELPITACGVYTYGKPVPGLVTLRVCRKYSRYRSTCHNQNSMSICEEFSQQADDKGCFRQVVKTKVFQLRQKGHDMKIEVEAKIKEEGTGIELTGIGSCEIANALSKLKFTKVNTNYRPGLPFSGQVLLVDEKGKPIPNKNITSVVSPLGYLSIFTTDEHGLANISIDTSNFTAPFLRVVVTYKQNHVCYDNWWLDEFHTQADHSATLVFSPSQSYIQLELVFGTLACGQTQEIRIHYLLNEDIMKNEKDLTFYYLIKARGSIFNLGSHVLSLEQGNMKGVFSLPIQVEPGMAPEAQLLIYAILPNEELVADAQNFEIEKCFANKVNLSFPSAQSLPASDTHLKVKAAPLSLCALTAVDQSVLLLKPEAKLSPQSIYNLLPGKTVQGAFFGVPVYKDHENCISGEDITHNGIVYTPKHSLGDNDAHSIFQSVGINIFTNSKIHKPRFCQEFQHYPAMGGVAPQALAVAASGPGSSFRAMGVPMMGLDYSDEINQVVEVRETVRKYFPETWIWDLVPLDVSGDGELAVKVPDTITEWKASAFCLSGTTGLGLSSTISLQAFQPFFLELTLPYSVVRGEAFTLKATVLNYMSHCIQIRVDLEISPDFLAVPVGGHENSHCICGNERKTVSWAVTPKSLGEVNFTATAEALQSPELCGNKLTEVPALVHKDTVVKSVIVEPEGIEKEQTYNTLLCPQDTELQDNWSLELPPNVVEGSARATHSVLGDILGSAMQNLQNLLQMPYGCGEQNMVLFVPNIYVLNYLNETQQLTEAIKSKAINYLISGYQRQLNYQHSDGSYSTFGNHGGGNTPGNTWLTAFVLKAFAQAQSHIFIEKTHITNAFNWLSMKQKENGCFQQSGYLLNNAMKGGVDDEVTLSAYITIALLEMPLPVTHSAVRNALFCLETAWASISQSQESHVYTKALLAYAFALAGNKAKRSELLESLNKDAVKEEDSLHWQRPGDVQKVKALSFYQPRAPSAEVEMTAYVLLAYLTSESSRPTRDLSSSDLSTASKIVKWISKQQNSHGGFSSTQDTVVALQALSKYGAATFTRSQKEVLVTIESSGTFSKTFHVNSGNRLLLQEVRLPDLPGNYVTKGSGSGCVYLQTSLKYNILPVADGKAPFALQVNTLPLNFDKAGDHRTFQIRINVSYTGERPSSNMVIVDVKMVSGFIPMKPSVKKLQDQPNIQRTEVNTNHVLIYIEKLTNQTLGFSFAVEQDIPVKNLKPAPIKVYDYYETDEFTVEEYSAPFSDGSEQGNA

Columns and labels:
TNF-α [1] = assay: Nondenaturing PAGE binding of 125I-TNF-α to α2M forms; conditions: 125I-TNF-α 1 nM, α2M preparation 1.0 μM, 1 h at 37° C
Procedure: Nondenaturing PAGE was performed on 5% slabs.
The incubation mixtures were then subjected to nondenaturing PAGE, a method that allows recovery of noncovalent as well as covalent α2 M-cytokine complexes. Gonias et al., Ann. […] The TNF-α was detected by autoradiography or Phosphor-Imager analysis.
Crookston et al, Wollenberg et at., Amer. J. Pathol.

TNF-α [2] = conditions: literature (Wolf et al.); read-out: KD, TNF-α binding to α2M; cited from earlier work
[3] = system: ciliary neurotrophic factor; conditions: literature (Wolf et al.); cited from earlier work
mice = assay: Toxicity of IP human MAC in mice; assay type: in vivo; conditions: 1.0, 2.5 or 5.0 mg IP, 5 days of observation
Procedure: Equivalent concentrations of human α2 M (native, unmodified form) were injected IP in separate animals, as a control. Each concentration of MAC or human α2 M was studied in duplicate. […] The animals were sacrificed after 5 days of observation.

interferon-γ = conditions: literature (Wolf et al.); cited from earlier work
LPS-challenged mice = assay: LPS challenge, MAC pre-treatment, survival; assay type: in vivo, CD-1 female mice; conditions: 2.5 mg IP 60 min prior to intravenous LPS
Procedure: Survival curves for LPS-challenged mice, with or without MAC pre-treatment.CD-5 female mice were injected EP with 2.5 mg MAC (.box-solid.) or an equivalent volume of PBS (.circle-solid.). After 60 min, the mice were anesthetized and 57 mg/kg LPS were injected intravenously. The mice were monitored for up to 5 days and then sacrificed. Survival data are presented in panel a. In panel b, mice were injected IP with 2.0 mg MAC (Δ), 1.0 mg MAC (.smallcircle.), or 2.5 mg of native human α2 M (.quadrature.). LPS was injected 60 min later.
CD-1 female mice were obtained from Charles River Breeding Laboratories. Animals were kept on a 12:12 h dark-light cycle. Mice were anesthetized with diethyl ether prior to intravenous injections of LPS. All animals were observed on a continuous basis. Those entering a moribund condition were euthanized by cervical dislocation under anesthesia.

Molecule	binding of 125I-TNF-α (nondenaturing PAGE) (TNF-α [1])	Kd (TNF-α [2]) [µM]	binding of ciliary neurotrophic factor to α2M [3]	tolerability (neurologic status, respiratory rate, eating and drinking, general behavior) (mice)	binding of interferon-γ to α2M (interferon-γ)	animals that died within 24 h (deaths/total) (LPS-challenged mice)
native human α2 M: α2-macroglobulin purified from human plasma, native unmodified form	not detected	5 to 10	do not bind	without outward changes in physiology	do not bind	4/4
B1	the level of binding was low					
